Experiments:
KDR = biological target: T1, KDR (Homo sapiens, UniProt P35968); assay: KDR kinase HTRF assay; format: biochemical; details: 0.3 mM ATP
T1 construct: EEE tag
Procedure: (§1) To determine inhibition of KDR, FGFR, EGFR, and PDGFR activity, kinase assays were conducted using an HTRF (Homogeneous Time Resolved Fluorescence) assay. This assay is described in A. J. Kolb et. al., Drug Discovery Today, 1998, 3(7), p 333.
Prior to kinase reaction, recombinant EEE-tagged KDR was activated in the presence of activation buffer (50 mM HEPES, pH 7.4, 1 mM DTT, 10% glycerol, 150 mM NaCl, 0.1 mM EDTA, 26 mM MgCl2, and 4 mM ATP). The enzyme was incubated at 4° C. for 1 hour.
(§2) Kinase activity assays were performed in 96-well polypropylene plates (Falcon) with a total volume of 90 μL in each well. Each well contained 1 μM KDR substrate (Biotin-EEEEYFELVAKKKK), 1 nM activated KDR, and a test compound with one of 8 assay concentrations ranging from 100 μM to […] (1:5 serial dilution). The kinase activity assay was done in the presence of 100 mM HEPES, pH 7.4, 1 mM DTT, 0.1 mM Na2VO4, 25 mM MgCl2, 50 mM NaCl (from KDR stock solution), 1% DMSO (from compound), 0.3 mM ATP (at Km concentration) and 0.02% BSA. The reaction was incubated at 37° C. for 30 minutes. To stop the KDR reaction, 72 μL of reaction mixture was transferred into a STOP plate containing 18 μL of revelation buffer (20 mM EDTA, 50 mM HEPES, pH 7.4, 0.02% BSA, 10 nM Eu-labelled anti-pY antibody (final conc. 2 nM), and 100 nM streptavidin (final conc. 20 nM)). After mixing, 35 μL of solution was transferred into duplicate wells of a 384-well black plate (Costar), and read at 615/665 nm on a Wallac Victor 5 reader.
(§3) Compound IC50 values were determined from duplicate sets of data, and calculated by using Excel and fitting data to equation Y=[(a−b)/{1+(X/c)^d]+b, where a and b are enzyme activity in the presence of no test inhibitor compound and an infinite amount of inhibitor test compound, respectively, c is the IC50 and d is the hill constant of the compound response. The IC50 value is the concentration of test compound that reduces by 50% the enzyme activity under the test conditions described.

FGFR = biological target: T2, FGFR; assay: FGFR kinase HTRF assay; format: biochemical; details: 10 μM ATP
T2 construct: fused on or other part: GST tag
Procedure: as §1, §2
FGFR, EGFR, and PDGFR activity assays were carried out as described above for the KDR activity assay with the following differences. GST-tagged FGFR enzyme was activated at room temperature for 1 hour in the following activation buffer: 100 mM HEPES, pH 7.4, 50 mM NaCl, 20 mM MgCl2, and 4 mM ATP. The kinase activity assay was performed with 1 μM substrate (Biotin-EEEEYFELV), 1.5 nM activated FGFR, and test compound in the presence of 100 mM HEPES, 1 mM DTT, 0.4 mM MgCl2, 0.4 mM MnCl2, 50 mM NaCl, 1% DMSO, 10 μM ATP (Km=8.5 μM for FGFR), 0.1 mM Na2VO4, and 0.02% BSA, in a total volume of 90 μL. The rest of the assay was performed in the same manner as KDR assay.
as §3

EGFR = EGFR (Homo sapiens, UniProt P00533); assay: EGFR kinase HTRF assay; format: biochemical; details: 0.5 μM ATP
Procedure: as §1, §2
(§4) The EGFR kinase activity assay was performed with 1 μM substrate (Biotin-EEEEYFELV), 1.5 nM EGFR, test compounds, 100 mM HEPES, pH 7.4, 1 mM DTT, 5 mM MgCl2, 2 mM MnCl2, 1% DMSO, 0.5 μM ATP (Km for EGFR), 0.1 mM Na2VO4, and 0.02% BSA. The rest of the assay was performed in the same manner as the KDR assay.
as §3

PDGFR = PDGFR kinase HTRF assay; format: biochemical; details: 2.3 μM ATP
Procedure: as §1, §2
as §4, with “PDGFR” for “EGFR”, “1.0” for “1.5”, “PDGFR,” for “EGFR,”, “2.3” for “0.5”, “PDGFR),” for “EGFR),”
as §3

[1] = tested on: Human umbilical vein endothelial cells; assay: VEGF-stimulated HUVEC proliferation assay (BrdU); format: cell-based; details: VEGF 20 ng per mL, BrdU labeling, read-out: HUVEC/VEFG IC50
Procedure: (§5) The antiproliferative activity of test-compounds of this invention in cell-based assays was evaluated by BrdU assay using the BrdU kit (Roche Biochemicals 1-647-229). Human umbilical vein endothelial cells (Clonetics CC-2519) were cultured in EGM-2 (Clonetics CC-3162) medium and seeded at 10000 cells per well in a volume of 200 μL of EGM-2 (Clonetics CC-3162) media in a 96-well flat bottom plates (Costar 3595) overnight. After 24 hours of growth at 37° C. with 5% CO2, the incubation media was removed slowly by aspiration and the content of each well was washed with 300 μL pre-warmed EBM-2 (Clonetics CC-3156) containing 50 μg per mL of gentamycin and 50 ng per mL of amphotercin-B (Clonetics CC-4083). […]
(§6) After 24 hour exposure to the test compounds, the cells were labeled with BrdU (Roche Biochemicals 1-647-229), by adding 20 μL per well of BrdU labeling reagent that has been diluted (1:100) in serum starvation medium. […] The plates were read at 450 nm with reference wavelength of 650 nm. The percent inhibition for each test compound was calculated by subtracting the absorbency of the blank (no cells) wells from all wells, then subtracting the division of the average absorbency of each test duplicate by the average of the controls from 1. […] The IC50 is determined from the linear regression of a plot of the logarithm of the concentration versus percent inhibition.

[2] = tested on: Human umbilical vein endothelial cells; assay: FGF-stimulated HUVEC proliferation assay (BrdU); format: cell-based; details: FGF 5 ng per mL, BrdU labeling, read-out: HUVEC/bFGFR IC50
Procedure: as §5, §6

T1 sequence (P35968 20-1356): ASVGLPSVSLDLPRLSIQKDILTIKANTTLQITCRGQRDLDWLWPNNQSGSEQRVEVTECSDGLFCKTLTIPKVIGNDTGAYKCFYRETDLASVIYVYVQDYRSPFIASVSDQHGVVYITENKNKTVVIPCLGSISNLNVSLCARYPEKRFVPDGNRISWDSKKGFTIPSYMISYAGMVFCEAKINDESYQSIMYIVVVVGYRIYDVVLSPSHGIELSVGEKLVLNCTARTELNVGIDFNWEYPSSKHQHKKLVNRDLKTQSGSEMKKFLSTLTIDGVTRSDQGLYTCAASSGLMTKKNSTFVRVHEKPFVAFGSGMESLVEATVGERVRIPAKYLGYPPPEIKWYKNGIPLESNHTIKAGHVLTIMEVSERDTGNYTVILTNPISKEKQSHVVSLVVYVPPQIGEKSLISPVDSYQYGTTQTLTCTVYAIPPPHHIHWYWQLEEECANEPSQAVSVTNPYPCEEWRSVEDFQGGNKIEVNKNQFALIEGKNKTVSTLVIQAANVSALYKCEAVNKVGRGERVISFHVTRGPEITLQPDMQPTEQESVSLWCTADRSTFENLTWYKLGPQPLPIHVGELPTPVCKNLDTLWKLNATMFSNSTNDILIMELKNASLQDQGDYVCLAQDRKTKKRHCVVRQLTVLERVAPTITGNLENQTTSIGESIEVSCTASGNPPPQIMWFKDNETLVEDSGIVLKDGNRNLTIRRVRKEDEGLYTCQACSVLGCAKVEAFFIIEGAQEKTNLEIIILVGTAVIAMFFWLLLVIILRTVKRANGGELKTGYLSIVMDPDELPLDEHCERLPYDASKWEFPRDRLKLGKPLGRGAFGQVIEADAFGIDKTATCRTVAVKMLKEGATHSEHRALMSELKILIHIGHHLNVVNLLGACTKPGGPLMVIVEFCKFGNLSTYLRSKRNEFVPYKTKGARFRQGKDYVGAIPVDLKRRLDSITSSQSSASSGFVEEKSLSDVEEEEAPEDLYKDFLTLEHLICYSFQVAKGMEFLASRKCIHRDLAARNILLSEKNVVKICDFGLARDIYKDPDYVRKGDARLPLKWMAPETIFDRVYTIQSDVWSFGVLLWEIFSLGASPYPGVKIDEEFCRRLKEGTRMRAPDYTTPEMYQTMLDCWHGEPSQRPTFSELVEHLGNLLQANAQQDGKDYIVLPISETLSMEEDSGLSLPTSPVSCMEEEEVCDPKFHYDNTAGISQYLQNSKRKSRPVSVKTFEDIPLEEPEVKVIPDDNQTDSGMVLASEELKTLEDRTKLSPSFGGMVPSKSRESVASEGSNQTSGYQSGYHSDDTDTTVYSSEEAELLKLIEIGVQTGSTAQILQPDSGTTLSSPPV
Sequence of EGFR (P00533 25-1210, species assumed): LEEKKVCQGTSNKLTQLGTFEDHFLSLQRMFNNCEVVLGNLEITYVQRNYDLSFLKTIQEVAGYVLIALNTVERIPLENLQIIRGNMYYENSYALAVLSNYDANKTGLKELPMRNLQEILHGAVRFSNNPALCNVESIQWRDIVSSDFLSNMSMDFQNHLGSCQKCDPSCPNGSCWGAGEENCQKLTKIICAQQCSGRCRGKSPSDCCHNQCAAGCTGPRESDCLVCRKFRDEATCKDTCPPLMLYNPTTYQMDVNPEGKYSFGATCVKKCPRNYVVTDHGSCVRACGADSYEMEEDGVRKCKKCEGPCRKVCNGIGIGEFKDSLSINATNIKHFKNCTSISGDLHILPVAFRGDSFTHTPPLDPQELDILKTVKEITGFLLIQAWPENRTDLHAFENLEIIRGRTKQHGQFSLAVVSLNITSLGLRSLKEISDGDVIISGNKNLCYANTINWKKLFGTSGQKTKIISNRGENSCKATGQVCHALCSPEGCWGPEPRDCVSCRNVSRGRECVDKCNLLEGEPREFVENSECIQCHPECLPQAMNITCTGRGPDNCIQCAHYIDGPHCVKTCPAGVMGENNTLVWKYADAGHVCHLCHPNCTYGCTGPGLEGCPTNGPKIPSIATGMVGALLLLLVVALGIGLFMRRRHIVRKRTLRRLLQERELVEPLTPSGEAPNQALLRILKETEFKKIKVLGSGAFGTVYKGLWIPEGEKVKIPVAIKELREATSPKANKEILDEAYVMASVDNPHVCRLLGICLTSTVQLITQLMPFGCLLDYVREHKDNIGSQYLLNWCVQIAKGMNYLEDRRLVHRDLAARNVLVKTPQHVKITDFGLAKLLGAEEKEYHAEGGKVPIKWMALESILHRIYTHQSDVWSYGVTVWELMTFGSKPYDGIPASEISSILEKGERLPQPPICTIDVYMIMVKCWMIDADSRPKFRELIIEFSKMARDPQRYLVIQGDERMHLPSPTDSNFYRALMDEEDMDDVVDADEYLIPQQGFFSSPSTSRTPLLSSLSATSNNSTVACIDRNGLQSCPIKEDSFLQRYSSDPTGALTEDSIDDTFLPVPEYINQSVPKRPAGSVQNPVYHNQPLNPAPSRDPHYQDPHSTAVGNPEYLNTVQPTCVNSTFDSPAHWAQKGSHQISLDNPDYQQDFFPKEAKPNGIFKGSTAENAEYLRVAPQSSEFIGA

| SMILES | IC50 (KDR) [µM] | IC50 (FGFR) [µM] | IC50 (EGFR) [µM] | IC50 (PDGFR) [µM] | IC50 [1] [µM] | IC50 [2] [µM] |
| --- | --- | --- | --- | --- | --- | --- |
| COc1ccc(C2Cc3cnc(Nc4ccccc4)nc3N(c3ccccc3)C2=O)cc1 (stereo not drawn) [Example 1f, 6-(4-Methoxy-phenyl)-8-phenyl-2-phenylamino-5,8-dihydro-6H-pyrido[2,3-d]pyrimidin-7-one] | < 10 | < 10 | < 10 | < 10 |  |  |
| O=C1C(c2c(Cl)cccc2Cl)Cc2cnc(Nc3ccccc3)nc2N1c1ccccc1 (stereo not drawn) [Example 2c, 6-(2,6-Dichloro-phenyl)-8-phenyl-2-phenylamino-5,8-dihydro-6H-pyrido[2,3-d]pyrimidin-7-one] | < 10 | < 10 | < 10 | < 10 | < 10 | < 10 |
| Cc1ccccc1C1Cc2cnc(Nc3ccccc3)nc2N(c2ccccc2)C1=O (stereo not drawn) [Example 4c, 8-Phenyl-2-phenylamino-6-O-tolyl-5,8-dihydro-6H-pyrido[2,3-d]pyrimidin-7-one] | < 10 | < 10 | < 10 | < 10 |  |  |
| O=C1C(c2ccccc2)Cc2cnc(Nc3ccccc3)nc2N1c1ccccc1 (stereo not drawn) [Example 5c, 6,8-Diphenyl-2-phenylamino-5,8-dihydro-6H-pyrido[2,3-d]pyrimidin-7-one] | < 10 | < 10 | < 10 | < 10 |  |  |
| COc1ccc(OC)c(C2Cc3cnc(Nc4ccccc4)nc3N(c3ccccc3)C2=O)c1 (stereo not drawn) [Example 6c, 6-(2,5-Dimethoxy-phenyl)-8-phenyl-2-phenylamino-5,8-dihydro-6H-pyrido[2,3-d]pyrimidin-7-one] | < 10 | < 10 | < 10 | < 10 |  |  |
| COc1ccccc1C1Cc2cnc(Nc3ccccc3)nc2N(c2ccccc2)C1=O (stereo not drawn) [Example 7c, 6-(2-Methoxy-phenyl)-8-phenyl-2-phenylamino-5,8-dihydro-6H-pyrido[2,3-d]pyrimidin-7-one] | < 10 | < 10 | < 10 | < 10 |  |  |
| O=C1C(c2cc(C(F)(F)F)cc(C(F)(F)F)c2)Cc2cnc(Nc3ccccc3)nc2N1c1ccccc1 (stereo not drawn) [Example 8d, 6-(3,5-Bis-trifluromethyl-phenyl)-8-phenyl-2-phenylamino-5,8-dihydro-6H-pyrido[2,3-d]pyrimidin-7-one] | > 10 | > 10 | > 10 | < 10 |  |  |
| O=C1C(c2ccncc2)Cc2cnc(Nc3ccccc3)nc2N1c1ccccc1 (stereo not drawn) [Example 9c, 8-Phenyl-2-phenylamino-6-pyridin-4-yl-5,8-dihydro-6H-pyrido[2,3-d]pyrimidin-7-one] | < 10 | > 10 | < 10 | > 10 |  |  |
| O=C1C(c2cccnc2)Cc2cnc(Nc3ccccc3)nc2N1c1ccccc1 (stereo not drawn) [Example 10c, 8-Phenyl-2-phenylamino-6-pyridin-3-yl-5,8-dihydro-6H-pyrido[2,3-d]pyrimidin-7-one] | < 10 | < 10 | < 10 | < 10 |  |  |
| COc1ccc(C2Cc3cnc(Nc4ccccc4)nc3N(c3ccccc3)C2=O)cc1OC (stereo not drawn) [Example 11c, 6-(3,4-Dimethoxy-phenyl)-8-phenyl-2-phenylamino-5,8-dihydro-6H-pyrido[2,3-d]pyrimidin-7-one] | < 10 | < 10 | > 10 | < 10 |  |  |
| COc1ccc(C2Cc3cnc(Nc4ccc(OC)nc4)nc3N(c3ccccc3)C2=O)cc1 (stereo not drawn) [Example 12d, 6-(4-Methoxy-phenyl)-2-(6-methoxy-pyridin-3-ylamino)-8-phenyl-5,8-dihydro-6H-pyrido[2,3-d]pyrimidine-7-one] | < 10 | < 10 | < 10 | < 10 |  |  |
| COc1ccc(C2Cc3cnc(Nc4ccccc4)nc3N(CC(C)C)C2=O)cc1 (stereo not drawn) [Example 13b, 8-Isobutyl-6-(4-methoxy-phenyl)-2-phenylamino-5,8-dihydro-6H-pyrido[2,3-d]pyrimidine-7-one] | < 10 | < 10 | < 10 | < 10 |  |  |
| COc1ccc(C2Cc3cnc(Nc4ccccc4)nc3N(CC3CC3)C2=O)cc1 (stereo not drawn) [Example 14b, 8-Cyclopropylmethyl-6-(4-methoxy-phenyl)-2-phenylamino-5,8-dihydro-6H-pyrido[2,3-d]pyrimidine-7-one] | < 10 | < 10 | < 10 | < 10 |  |  |
